Experimental data taken from patent US7041292B1, “Treating prostate cancer with anti-ErbB2 antibodies” (Genentech, Inc., priority 1999, dated 2006).
“Also recorded” adds a separate entry of the source.

Legend:
SK-BR-3 cells = assay: SK-BR-3 cell proliferation, crystal violet, 4 days, with or without rHRGβ1; format: cell-based, human; details: 1% serum, FIG. 4B
Procedure: (§1) Experiment was carried out in medium containing 1% serum. Anti-ErbB2 antibodies or medium alone were added and the cells were incubated for 2 hours at 37° C. Subsequently rHRGβ1 (1 nM) or medium alone were added and the cells were incubated for 4 days. Monolayers were washed and stained/fixed with 0.5% crystal violet. To determine cell proliferation the absorbance was measured at 540 nm.
(§2) ErbB2 levels in MDA-MB-175 cells are 4–6 times higher than the level found in normal breast epithelial cells and the ErbB2-ErbB4 receptor is constitutively tyrosine phosphorylated in MDA-MB-175 cells. […] Inhibition of cell proliferation by 4D5 is dependent on the ErbB2 expression level (Lewis et al. Cancer Immunol. Immunother. 37:255–263 (1993)). […] However this effect […] by exogenous HRG.

[1] = tested on: CWR22R human prostate cancer xenograft; assay: Androgen independent CWR22R prostate cancer xenograft; format: in vivo, mice; details: for effect on tumor growth / clinical activity: CWR22R androgen independent
Procedure: (§3) Male animals were inoculated s.c. with 1×10^6 LNCaP cells or minced tumor tissue from the androgen dependent CWR22, and females received the androgen independent sublines CWR22R, or CWR22SA1, CWRSA4, CWRSA6 which were obtained by selecting tumors for regrowth and increased serum PSA after androgen withdrawal. […] Control mice were given vehicle alone. Tumors were measured every 3–4 days with vernier calipers, and tumor volumes were calculated by the formula: p/6 × larger diameter × (smaller diameter)^2. Animals with palpably established tumors of at least 65 mm^3 in volume were designated to treatment groups.
Pairwise differences between the tumor volumes of the treatment groups were compared over time using a permutation test.
(§4) The effect of an antibody, which blocks ligand activation of an ErbB receptor, on human prostate cancer was assessed.
All injections were given IP (N=5).
(§5) Both antibodies were dosed at 20 mg/kg twice per week.

[2] = tested on: MSKPC6 androgen independent prostate xenograft; assay: Androgen independent MSKPC6 prostate xenograft, dose response; format: in vivo; details: IP loading 6, 20 or 60 mg/kg then 3, 10 or 30 mg/kg twice weekly, FIG. 25
Procedure: Dose response studies were carried out using rhuMAb 4D5 in the CWR22R and MSKPC6 (Agus et al. Cancer Research 59:4761–4764 (1999)) androgen independent prostate xenografts. Animals were dosed IP with: control; 6 mg/kg loading dose then 3 mg/kg twice weekly; 20 mg/kg loading dose then 10 mg/kg twice weekly; or 60 mg/kg loading dose then 30 mg/kg twice weekly.

[3] = tested on: CWRSA6 human prostate cancer xenograft; assay: Androgen independent CWRSA6 prostate cancer xenograft; format: in vivo, mice
Procedure: as §3
Statistical Analysis. Pairwise differences between the tumor volumes of the treatment groups were compared over time using a permutation test. […] The statistic used to test the hypothesis was the sum of the squared differences between mean tumor volume summed over all time points.

MDA-MB-175 cells = assay: MDA-MB-175 cell proliferation, crystal violet, 4 days, with or without rHRGβ1; format: cell-based, human; details: 10 μg/mL, not significantly reversed by exogenous HRG, FIG. 4A
Procedure: as §1, §2

[4] = tested on: EGF, TGF-α or HRG mediated activation of MAPK in MCF7 cells; assay: EGF, TGF-α or HRG activation of MAPK in MCF7 cells, Western blot; format: cell-based, human; details: 200 nM antibody; 1 nM EGF, 1 nM TGF-α or 0.2 nM HRG; FIG. 10
Procedure: Many growth factor receptors signal through the mitogen-activated protein kinase (MAPK) pathway. These dual specificity kinases are one of the key endpoints in signal transduction pathways that ultimately triggers cancer cells to divide.
MCF7 cells (10^5 cells/well) were plated in serum containing media in 12-well cell culture plates. The next day, the cell media was removed and fresh media containing 0.1% serum was added to each well. This procedure was then repeated the following day and prior to assay the media was replaced with serum-free binding buffer (Jones et al. J. Biol. Chem. 273:11667–74 (1998); and Schaefer et al. J. Biol. Chem. 274:859–66 (1999)). […] Cells were then treated with 1 nM EGF, 1 nM TGF-α or 0.2 nM HRG for 15 minutes. The reaction was stopped by aspirating the cell medium and then adding 0.2 mL SDS-PAGE sample buffer containing 1% DTT. MAPK activation was assessed by Western blotting using an anti-active MAPK antibody (Promega) as described previously (Jones et al. J. Biol. Chem. 273:11667–74 (1998)).

[5] = tested on: CWR22 human prostate cancer xenograft; assay: Androgen dependent CWR22 prostate cancer xenograft; format: in vivo, mice; details: antibody 20 mg/kg twice weekly
Description: Animal studies: Four to six week old nude athymic BALB/c male and female mice were obtained from the National Cancer Institute-Frederick Cancer Center and maintained in pressurized ventilated caging at the Sloan-Kettering Institute. Male animals were inoculated s.c. with 1×10^6 LNCaP cells or minced tumor tissue from the androgen dependent CWR22, and females received the androgen independent sublines CWR22R, or CWR22SA1, CWRSA4, CWRSA6 which were obtained by selecting tumors for regrowth and increased serum PSA after androgen withdrawal. […] Control mice were given vehicle alone. Tumors were measured every 3–4 days with vernier calipers, and tumor volumes were calculated by the formula: p/6 × larger diameter × (smaller diameter)^2. Animals with palpably established tumors of at least 65 mm^3 in volume were designated to treatment groups.
Pairwise differences between the tumor volumes of the treatment groups were compared over time using a permutation test. […] The statistic used to test the hypothesis was the sum of the squared differences between mean tumor volume summed over all time points.
as §4, §5

[6] = tested on: LNCaP human prostate cancer xenograft; assay: Androgen dependent LNCaP prostate cancer xenograft; format: in vivo, mice; details: end of the treatment period, n=6
Description: Animal studies: Four to six week old nude athymic BALB/c male and female mice were obtained from the National Cancer Institute-Frederick Cancer Center and maintained in pressurized ventilated caging at the Sloan-Kettering Institute. Male animals were inoculated s.c. with 1×10^6 LNCaP cells or minced tumor tissue from the androgen dependent CWR22, and females received the androgen independent sublines CWR22R, or CWR22SA1, CWRSA4, CWRSA6 which were obtained by selecting tumors for regrowth and increased serum PSA after androgen withdrawal. All lines were injected together with reconstituted basement membrane (Matrigel; Collaborative Research, Bedford, Mass.) as described previously (Nagabhushan et al. Cancer Res. 56:3042–3046 (1996); Wainstein et al. Cancer Res. 54:6049–6052 (1994); and Sato et al. Cancer Res. 57:1584–1589 (1997)). To maintain serum testosterone levels, male mice were implanted with 12.5-mg sustained release testosterone pellets (Innovative Research of American, Sarasota, Fla.) s.c. before receiving the tumor cell inoculation. […] Control mice were given vehicle alone. Tumors were measured every 3–4 days with vernier calipers, and tumor volumes were calculated by the formula: p/6 × larger diameter × (smaller diameter)^2. Animals with palpably established tumors of at least 65 mm^3 in volume were designated to treatment groups. […]

“2C4: murine monoclonal antibody binding the extracellular domain of ErbB2, blocks ligand activation; ATCC HB12697 [Mutant 2C4]” was tested, and the “growth inhibitory effect on SK-BR-3 cells” value (SK-BR-3 cells) was “no inhibitory effect”, the “effect on tumor growth / clinical activity” value [1] was “has clinical activity; also recorded: suppresses the growth of androgen-independent tumor xenografts in a dose dependent manner” and the “effect on tumor growth” value [2] was “suppresses the growth of androgen-independent tumor xenografts in a dose dependent manner”. For the same molecule, the “effect on tumor growth / clinical activity” value ([3]; CWRSA6 androgen independent) was “has clinical activity”, the “growth inhibitory effect on MDA-MB-175 cells” value (MDA-MB-175 cells) was “strong growth inhibitory effect” and the “block of EGF, TGF-α and HRG mediated activation of MAPK” value [4] was “significantly blocks”. The “effect on tumor growth / clinical activity” value [5] was “has clinical activity”.

In the case of CC(=O)O[C@H]1C(=O)[C@@]2(C)[C@H]([C@H](OC(=O)c3ccccc3)[C@]3(O)C[C@H](OC(=O)[C@H](O)[C@@H](NC(=O)c4ccccc4)c4ccccc4)C(C)=C1C3(C)C)[C@]1(OC(C)=O)CO[C@@H]1C[C@@H]2O [paclitaxel, reference compound], the mean tumor volume ([1]; CWR22R, end of the treatment period, n=5) is reported as 1,273 mm^3, the mean tumor volume ([3]; CWRSA6, end of the treatment period, n=5) is reported as 1,496 mm^3 and the mean tumor volume [6] is reported as 233 mm^3.

B1: PEG-Fab: Fab' fragment of rhuMAb 2C4 expressed in E. coli and conjugated to 20 kD branched polyethylene glycol (conjugate, chains of the INN, looked up)
VH: EVQLVESGGGLVQPGGSLRLSCAASGFTFTDYTMDWVRQAPGKGLEWVADVNPNSGGSIYNQRFKGRFTLSVDRSKNTLYLQMNSLRAEDTAVYYCARNLGPSFYFDYWGQGTLVTVSS
VL: DIQMTQSPSSLSASVGDRVTITCKASQDVSIGVAWYQQKPGKAPKLLIYSASYRYTGVPSRFSGSGSGTDFTLTISSLQPEDFATYYCQQYYIYPYTFGQGTKVEIK
modifications: Fab' 20 kD branched PEG
With B1 the “effect on tumor growth / clinical activity” value [1] was “inhibits tumor growth”.
